Reference: patent US20100209537A1, “Metal complexes with anticancer activity” (priority 2009, published 2010)

Assays:
[1] = Stability at room temperature; assay type: physicochemical
[2] = Solubility in water and organic solvents; assay type: physicochemical
[3] = tested on: ovarian cancer cell line A2780; experiment: MTT assay, ovarian cancer cell line A2780; assay type: cell-based, human; settings: n = 3, A2780
Description: MTT [3-(4,5-dimethylthiazol-2yl)-2,5-diphenyltetrazolium bromide] method:
MTT is used to measure the metabolic activity of viable cells. The assay is non-radioactive and can be performed entirely in a micro titer plate (MTP). It is suitable for measuring cell proliferation, cell viability or cytotoxicity. The reaction produces water-insoluble formazan salt that must be solubilized. Procedure involves culturing the cells in a 96-well micro titer plate, and then incubating them with MTT solution for approximately 2 hours. During incubation period, viable cells convert MTT to a water-insoluble formazan dye. The formazan dye in the MTP is solubilized and quantified with an ELISA plate reader. The absorbance directly correlates with the cell number. This can be applicable for adherent cells cultured in MTP.
Compounds were tested at concentrations of 3 and 30 μg/ml by MTT assay using the ovarian cancer cell line A2780.

stability at room temperature [1]	solubility in dimethylformamide and dimethylsulphoxide [2]	solubility in methanol and acetone [2]	solubility in water [2]	Compound	Percent surviving cells of DMSO control (Mean) ([3]; 3 μg/ml)	Percent surviving cells of DMSO control (Mean) ([3]; 30 μg/ml)
stable	fairly soluble	very slightly soluble	insoluble	Oc1ccccc1C=NNc1nc2ccccc2nc1Cl [RM2, 2-hydroxybenzaldehyde-1-(3-chloro-2-quinoxalinyl) hydrazone]	0.4%	0.4%
stable	fairly soluble	very slightly soluble	insoluble	COc1cccc(C=NNc2nc3ccccc3nc2Cl)c1O [RM5, 2-Hydroxy-3-methoxybenzaldehyde-1-(3-chloro-2-quinoxalinyl)-hydrazone]	0.6%	0.2%
stable	fairly soluble	very slightly soluble	insoluble	Oc1ccc2ccccc2c1C=NNc1nc2ccccc2nc1Cl [RM7, 2-hydroxy-1-naphthaldehyde-1-(3-chloro-2-quinoxalinyl)hydrazone]	6.6%	0.9%
stable	fairly soluble	very slightly soluble	insoluble	Oc1ccc2ccccc2c1C=NNc1nc2ccccc2nc1Cl [RM8, 2-hydroxy-1-naphthaldehyde-1-(3-chloro-2-quinoxalinyl)hydrazone]	0.3%	0.1%
stable	fairly soluble	very slightly soluble	insoluble	Clc1nc2ccccc2nc1NN=Cc1ccccn1 [RM10, 2-pyridinecarbaldehyde-2-(3-chloro-2-quinoxalinyl)hydrazone]	4.6%	1%
stable	fairly soluble	very slightly soluble	insoluble	Clc1nc2ccccc2nc1NN=Cc1ccccn1 [RM11, 2-pyridinecarbaldehyde-2-(3-chloro-2-quinoxalinyl)hydrazone]	0.4%	0.7%
stable	fairly soluble	very slightly soluble	insoluble	Clc1nc2ccccc2nc1NN=Cc1ccco1 [RM14, 2-furaldehyde-2-(3-chloro-2-quinoxalinyl)hydrazone]	13.2%	0.7%
